Patent US9079870B2, “Thiol mediated/activated prodrugs of sulfur dioxide (SO2) having anti-bacterial activity” (priority 2012, dated 2015)
In brackets after ≈: the same amount, converted by molar mass. Several values for one entry are separate records, joined by “and”; a condition that tells them apart may be missing. Equal entries are not always repeated. Where two headings read alike, the source gives them in different places.

Tests used:
[1] = system: S. aureus ATCC 29213; assay: Antibacterial activity (MIC) against S. aureus; type: cell-based
Source text: (§1) The antibacterial activity of thiol mediated/activated prodrugs of SO2 i.e. 2,4-dinitrophenylsulfonamide related compounds against the gram positive pathogenic bacteria selected from the group S. aureus, E. feacalis is given herein below Table 2a.

[2] = system: E. feacalis ATCC 29212; assay: Antibacterial activity (MIC) against E. feacalis; type: cell-based
Source text: as §1

[3] = system: Mycobacterium tuberculosis H37Rv strain; assay: Antimycobacterial activity assay (MIC, 7H11 agar); type: cell-based; settings: Mtb H37Rv
[4] = Pararosaniline-based colorimetric assay for sulfur dioxide; type: physicochemical; settings: detected with pararosaniline-based colorimetric assay; 10 equiv cysteine, pH 7.4
[5] = 100 µM, pH 7.4
[6] = Table 4; values are for the amine without a DNs group; cited from earlier work
[7] = system: human embryonic kidney 293 cells (HEK); assay: Cell viability assay
[8] = Cysteine-activated sulfur dioxide release, ion chromatography analysis of sulfite; settings: for SO2 yield, 5 min: 5 min after treatment of compound (100 1M) with 10 equiv of cysteine in pH 7.4 phosphate buffer; for SO2 yield in 30 min (%): 30 min after commencement of the reaction with cysteine (10 equiv); for SO2 yield in 30 min (%) / Max SO2 yield: pH 7.4; for Max SO2 yield: sum of sulfite and sulfate, compound 100 μM, cysteine 10 equiv; for K (min−1), rate of sulfite release: compound (100 μM), cysteine (10 equiv), pH 7.4 phosphate buffer (20 mM); for % SO2 (30 min): 30 min after commencement of the reaction with thiol, per mole of compound
[9] = Kinetics of thiol-mediated decomposition of compound (7), HPLC and ion chromatography; type: physicochemical; settings: curve fitting, FIG. 3
Method: FIG. 3 depicts kinetics of decomposition of compound (7) to produce sulfur dioxide and 2-hydroxyethylthio-2,4-dinitrobenzene (7y), where disappearance of compound (7) and appearance of (7y) was followed by HPLC analysis. Production of sulfite was monitored by ion chromatography analysis. Curve fitting afforded first order rate constant for: appearance of (7y) as 0.011 min^−1; and appearance of sulfite as 0.014 min^−1.
Alternatively, a detailed kinetic analysis of thiol-mediated decomposition and sulfite generation from compound (7) is represented in FIG. 1b, wherein compound (7) decomposed to simultaneously produce sulfur dioxide, and by-products like 4-methoxyaniline (7x) and 2-hydroxyethylthio-2,4-dinitrobenzene (7y). Further the rate determining step in the said mechanism was the step of protonation (either through proton transfer or addition of proton).

[10] = Staphylococcus aureus, ATCC29213; read-out: MIC (μg/mL) S. aureus ATCC 29213
[11] = Enterococcus faecalis, ATCC29212; read-out: MIC (μg/mL) E. feacalis ATCC 29212
[12] = Mycobacterium tuberculosis, H37RV, 672 h, Table 3, inhibit 99% of bacterial growth
[13] = Mycobacterium tuberculosis, H37RV, Table 2b
[14] = Mycobacterium tuberculosis, H37RV, Table 2b, inhibit 99% of bacterial growth
[15] = Mycobacterium tuberculosis, H37RV, Table 3
[16] = Mycobacterium tuberculosis, H37RV, Table 3, inhibit 99% of bacterial growth
[17] = 30 min after treatment of compound (100 1M) with 10 equiv of cysteine in pH 7.4 phosphate buffer
[18] = Table 3, 30 min after treatment of compound (100 μM) with 10 equiv of cysteine in pH 7.4 phosphate buffer
[19] = Mycobacterium tuberculosis, H37RV, 672 h, Table 3, inhibit 99% of bacterial growth, read-out: MIC

## O=[N+]([O-])c1ccc(S(=O)(=O)NCc2ccccc2)c([N+](=O)[O-])c1 [Compound 1, N-benzyl-2,4-dinitrophenylsulfonamide]
[1]; [10]
  MIC: > 16 µg/mL
[2]; [11]
  MIC: > 16 µg/mL
[3]; [12]
  MIC: ≤ 25 µg/mL
[3]; [13]
  MIC: 0.15 µM
[3]; [14]
  MIC: ~0.05 µg/mL
[3]; [15]
  MIC: 0.15 µM
[3]; [16]
  MIC: 0.05 µg/mL
[4]
  SO2 source: yes
[5]
  t1/2 (min) of SO2 generation: ~2 min
[5]; buffer
  t1/2 (min) of SO2 generation: ~2 g·min
[6]
  pKaH: 9.34
[7]; Homo sapiens, HEK293, read-out: IC50, cell viability
  IC50: 7 µM
[7]; based on the MIC and IC50
  selectivity (SI) toward Mtb over human embryonic kidney cells: ~50 and 47
[8]
  SO2 yield, 5 min: 83 µM
  SO2 yield in 30 min (%): ~100%
  Max SO2 yield: 100 µM
[8]; [17]
  SO2 yield, 30 min: 100 µM
[8]; [18]
  SO2 yield, 30 min: 100 µM

## O=[N+]([O-])c1ccc(S(=O)(=O)Nc2ccccc2)c([N+](=O)[O-])c1 [Compound 6, N-phenyl, 2,4-dinitrophenylsulfonamide]
[3]; [12]
  MIC: ≤ 25 µg/mL
[3]; [13]
  MIC: 9.69 µM
[3]; [14]
  MIC: 3.13 µg/mL
[3]; [15]
  MIC: 9.7 µM
[3]; [16]
  MIC: 3.13 µg/mL
[4]
  SO2 source: yes
[5]; buffer
  t1/2 (min) of SO2 generation: 25 min
[6]
  pKaH: 4.64
[8]
  SO2 yield, 5 min: 37 µM
  SO2 yield in 30 min (%): 55%
  K (min−1), rate of sulfite release: 0.0273 min⁻¹
  Max SO2 yield: 94 µM
[8]; [17]
  SO2 yield, 30 min: 55 µM
[8]; [18]
  SO2 yield, 30 min: 55 µM

## COc1ccc(NS(=O)(=O)c2ccc([N+](=O)[O-])cc2[N+](=O)[O-])cc1 [Compound 7, N-(4-methoxyphenyl) 2,4-dinitrophenylsulfonamide]
[1]; [10]
  MIC: > 16 µg/mL
[2]; [11]
  MIC: > 16 µg/mL
[3]; [12]
  MIC: ≤ 25 µg/mL
[3]; [13]
  MIC: 4.4 µM
[3]; [14]
  MIC: 1.56 µg/mL
[3]; [15]
  MIC: 4.4 µM
[3]; [16]
  MIC: 1.56 µg/mL
[4]
  SO2 source: yes
[9]; HPLC analysis
  first order rate constant for appearance of (7y): 0.011 min⁻¹
[9]; ion chromatography analysis
  first order rate constant for appearance of sulfite: 0.014 min⁻¹
[5]; buffer
  t1/2 (min) of SO2 generation: 12 min
[6]
  pKaH: 5.29
[8]
  SO2 yield, 5 min: 39 µM
  K (min−1), rate of sulfite release: 0.0575 min⁻¹
  Max SO2 yield: 97 µM
[8]; [17]
  SO2 yield, 30 min: 80 µM
[8]; [18]
  SO2 yield, 30 min: 79.5 µM

## O=[N+]([O-])c1ccc(S(=O)(=O)Nc2cccc(F)c2)c([N+](=O)[O-])c1 [Compound 9, N-(3-fluorophenyl) 2,4-dinitrophenylsulfonamide]
[3]; Table 2b, read-out: MIC
  MIC: 73 µM
[3]; Table 3, read-out: MIC
  MIC: 73 µM
[4]
  SO2 source: yes
[6]
  pKaH: 3.38
[8]
  SO2 yield, 5 min: 5 µM
  K (min−1), rate of sulfite release: 0.0106 min⁻¹
  Max SO2 yield: 86 µM
[8]; [17]
  SO2 yield, 30 min: 24 µM
[8]; [18]
  SO2 yield, 30 min: 24 µM

## CN(Cc1ccccc1)S(=O)(=O)c1ccc([N+](=O)[O-])cc1[N+](=O)[O-] [Compound 15, (N-benzyl, N-methyl) 2,4-dinitrophenylsulfonamide]
[1]; [10]
  MIC: 8 µg/mL (≈ 22.8 µM)
[2]; [11]
  MIC: > 16 µg/mL
[3]; [12]
  MIC: ≤ 25 µg/mL
[3]; [13]
  MIC: 1.1 µM
[3]; [14]
  MIC: 0.4 µg/mL
[3]; [15]
  MIC: 1.1 µM
[3]; [16]
  MIC: 0.4 µg/mL
[3]; Mycobacterium tuberculosis, H37RV, text to Table 2b
  MIC: < 1000 µg/mL
[4]
  SO2 source: yes
[5]
  t1/2 (min) of SO2 generation: 4 min
[5]; buffer
  t1/2 (min) of SO2 generation: ~4 g·min
[6]
  pKaH: 9.58
[8]
  SO2 yield, 5 min: 79 µM
  Max SO2 yield: 100 µM
[8]; [17]
  SO2 yield, 30 min: 100 µM
[8]; [18]
  SO2 yield, 30 min: 100 µM

## CCCN(Cc1ccccc1)S(=O)(=O)c1ccc([N+](=O)[O-])cc1[N+](=O)[O-] [Compound 16, (N-benzyl, N-propyl) 2,4-dinitrophenylsulfonamide]
[3]; Table 2b, read-out: MIC
  MIC: 8.25 µM
[3]; Table 3, read-out: MIC
  MIC: 8.25 µM
[4]
  SO2 source: yes
[6]
  pKaH: 9.68
[8]
  SO2 yield, 5 min: 68 µM
  K (min−1), rate of sulfite release: 0.1517 min⁻¹
  Max SO2 yield: 96 µM
[8]; [17]
  SO2 yield, 30 min: 96 µM
[8]; [18]
  SO2 yield, 30 min: 96 µM

## O=[N+]([O-])c1ccc(S(=O)(=O)N2CCOCC2)c([N+](=O)[O-])c1 [Compound 23, 4-[(2,4-dinitrophenyl)sulfonyl]morpholine]
[3]; [19]
  MIC: ≤ 25 µg/mL
[3]; [15]
  MIC: 19.6 µM
[3]; [16]
  MIC: 6.25 µg/mL
[4]
  SO2 source: yes
other
  melting point: 144 to 145 °C
[8]; [18]
  SO2 yield, 30 min: 96 µM

## O=[N+]([O-])c1ccc(S(=O)(=O)N2CCCCC2)c([N+](=O)[O-])c1 [Compound 24, 1-[(2,4-dinitrophenyl)sulfonyl]piperidine]
[1]; Staphylococcus aureus, ATCC29213, read-out: MIC (μg/mL) S. aureus ATCC 29213
  MIC: 4 µg/mL (≈ 12.7 µM)
[2]; Enterococcus faecalis, ATCC29212, read-out: MIC (μg/mL) E. feacalis ATCC 29212
  MIC: > 16 µg/mL
[3]; [19]
  MIC: ≤ 25 µg/mL
[3]; [15]
  MIC: 2.5 µM
[3]; [16]
  MIC: 0.78 µg/mL
[4]
  SO2 source: yes
other
  melting point: 138 °C
[8]; [18]
  SO2 yield, 30 min: 91 µM

## O=[N+]([O-])c1ccc(S(=O)(=O)N(CCCN(Cc2ccccc2)S(=O)(=O)c2ccc([N+](=O)[O-])cc2[N+](=O)[O-])Cc2ccccc2)c([N+](=O)[O-])c1 [Compound 34, N,N′-(propane-1,3-diyl)bis(N-benzyl-2,4-dinitrobenzenesulfonamide)]
other
  melting point: 186 to 189 °C
[8]
  % SO2 (30 min): 152%

## COc1cccc(N(CCCN(Cc2ccccc2)S(=O)(=O)c2ccc([N+](=O)[O-])cc2[N+](=O)[O-])S(=O)(=O)c2ccc([N+](=O)[O-])cc2[N+](=O)[O-])c1 [Compound 36, N-benzyl-N-(3-(N-(3-methoxyphenyl)-2,4-dinitrophenylsulfonamido)propyl)-2,4-dinitrobenzenesulfonamide]
other
  melting point: 108 to 110 °C
[8]
  % SO2 (30 min): 184%

## COc1ccc(N(CCCN(Cc2ccccc2)S(=O)(=O)c2ccc([N+](=O)[O-])cc2[N+](=O)[O-])S(=O)(=O)c2ccc([N+](=O)[O-])cc2[N+](=O)[O-])cc1 [Compound 37, N-benzyl-N-(3-(N-(4-methoxyphenyl)-2,4-dinitrophenylsulfonamido)propyl)-2,4-dinitrobenzenesulfonamide]
other
  melting point: 118 to 120 °C
[8]
  % SO2 (30 min): 183%

## O=[N+]([O-])c1ccc(S(=O)(=O)N(CCCN(c2ccccc2)S(=O)(=O)c2ccc([N+](=O)[O-])cc2[N+](=O)[O-])Cc2ccccc2)c([N+](=O)[O-])c1 [Compound 38, N-benzyl-N-(3-(2,4-dinitro-(N-phenyl)phenylsulfonamido)propyl)-2,4 dinitro benzene sulfonamide]
other
  melting point: 151 to 153 °C
[8]
  % SO2 (30 min): 160%

## O=[N+]([O-])c1ccc(S(=O)(=O)N(CCCN(c2ccccc2F)S(=O)(=O)c2ccc([N+](=O)[O-])cc2[N+](=O)[O-])Cc2ccccc2)c([N+](=O)[O-])c1 [Compound 39, N-benzyl-N-(3-(N-(2-fluorophenyl)-2,4-dinitrophenylsulfonamido)propyl)-2,4-dinitrobenzenesulfonamide]
other
  melting point: 151 to 153 °C
[8]
  % SO2 (30 min): 141%
